Measured values as given in US7105664B2, “5-Halogen-6-phenyl-7-fluoroalkylamino-triazolopyrimidines as fungicides” (BASF Aktiengesellschaft, priority 2001, dated 2006).

Tests used:
[1] = tested on: Pyricularia oryzae; type: in vivo; settings: 200 ppm, rice seedlings variety Tai-Nong 67, protective; untreated plants infected to 90%
[2] = tested on: Blumeria graminis f. sp. tritici; assay: Control of powdery mildew on wheat, Comparison Trial 2; type: in vivo; settings: wheat variety Kanzler, untreated plants infected to 100%

| Structure (SMILES) | infection (% diseased leaf area) [1] [%] | infection (% diseased leaf area) ([2]; 50 ppm) [%] | infection (% diseased leaf area) ([2]; 200 ppm) [%] |
| --- | --- | --- | --- |
| Fc1cc(F)c(-c2c(Cl)nc3ncnn3c2NCC(F)(F)F)c(F)c1 [A] | 60 |  |  |
| Fc1cccc(Cl)c1-c1c(Cl)nc2ncnn2c1NCC(F)(F)F [B] | 10 |  |  |
| CC(Nc1c(-c2c(F)cccc2F)c(Cl)nc2ncnn12)C(F)(F)F (stereo not drawn) [C] | 20 |  |  |
| COc1cc(F)c(-c2c(Cl)nc3ncnn3c2NCC(F)(F)F)c(F)c1 [D] |  | 80 | 60 |
| COc1cc(F)c(-c2c(Cl)nc3ncnn3c2NC(C)C(F)(F)F)c(F)c1 (stereo not drawn) [E] |  | 80 | 80 |
| Fc1cc(F)c(-c2c(Cl)nc3ncnn3c2NCC(F)C(F)(F)F)c(F)c1 (stereo not drawn) [I-1] | 3 |  |  |
| FC(F)=C(F)CCNc1c(-c2c(F)cc(F)cc2F)c(Cl)nc2ncnn12 [I-2] | 3 |  |  |
| CC(CNc1c(-c2c(F)cc(F)cc2F)c(Cl)nc2ncnn12)CC(F)(F)F (stereo not drawn) [I-3] | 3 |  |  |
| COc1cc(F)c(-c2c(Cl)nc3ncnn3c2NCCC(F)(F)F)c(F)c1 [I-7] |  | 7 | 3 |
